Measurements: US7470821B2, “Aldolase-inhibiting aromatic compounds” (Valorisation-Recherche, Limited Partnership, priority 2003, dated 2008)
Residue numbers refer to the chain shown, from its start. Read-outs that look alike come from different tables or passages of the source.

How the values were obtained:
[1] = target: T1, K146M mutant RM aldolase (Oryctolagus cuniculus, UniProt P00883, K147M); assay: UV-visible differential spectroscopy (method A) with mutated aldolase K146M; type: binding, rabbit; settings: FHN-P 300 μM; for kapp: 431 nm
T1 construct: made in house
T1 sequence (P00883 1-364 K147M): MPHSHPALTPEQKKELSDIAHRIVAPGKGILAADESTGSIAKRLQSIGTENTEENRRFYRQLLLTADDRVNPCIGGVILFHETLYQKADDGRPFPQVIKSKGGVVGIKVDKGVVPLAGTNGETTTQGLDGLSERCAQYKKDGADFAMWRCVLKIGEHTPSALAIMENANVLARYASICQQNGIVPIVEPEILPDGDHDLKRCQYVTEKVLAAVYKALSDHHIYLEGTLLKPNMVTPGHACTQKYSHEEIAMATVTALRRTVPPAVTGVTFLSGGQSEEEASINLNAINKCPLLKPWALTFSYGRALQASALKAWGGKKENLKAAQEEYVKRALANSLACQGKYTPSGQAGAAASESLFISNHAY
Procedure: For method A, absorption spectra are recorded as a function of time, between 250 and 500 nm, or at wavelengths corresponding to maximum or minimum absorption. Measurements are begun by adding FHN-P at varying final concentrations (0.1-1 mM) in the TEA buffer containing a fixed concentration of aldolase (10 μM of subunits). Measured absorption spectra for the enzyme complex are corrected using the absorbance of the buffer, the FHN—P, and the enzyme (measured separately). The differential absorption spectra thus obtained are used to calculate the value of the constants that define the formation of the aldolase-inhibitor complex.
Every UV-visible differential test spectroscopy test using mutated aldolases (10 μM of subunits) is carried out using method A. • Monitored by Electrospray Ionization Mass Spectrometry (ESI-MS).
Residues of lysine 106, 146 and 229 residues are located at the active aldolase sites and thus are candidates for causing inactivation by forming a Schiff base with the FHN-P. In order to identify which lysine is responsible for the differential absorbances in the presence of FHN-P, sporadic mutations of these lysine residues were created and named: K107M (Research Collaboratory for Structural Bioinformatics Protein Databank), K146M (Blonski C. et al., 1997, Biochem. J. 323:71-77) and […] (Research Collaboratory for Structural Bioinformatics Protein Databank). […] UV-visible differential spectroscopy (method A) was used to examine formation of the enzyme complex for each sporadic mutation in the presence of a fixed concentration of FHN-P (300 μM).

[2] = target: T2, native aldolase from rabbit muscle (RM) (Oryctolagus cuniculus, UniProt P00883); assay: Aldolase activity by coupled enzyme test (TIM/GDH), inactivation and reactivation kinetics; type: biochemical; settings: for Specific activity: RM 0.2 mg/mL
T2 construct: made in house
T2 sequence (P00883 1-364): T1 sequence (P00883 1-364 K147M) with M147K
Procedure: Aldolase activity was measured using a coupled enzyme test system: the triose-phosphate isomerase and glycerol-3-phosphate deshydrogenase (TIM/GDH) system, following oxidation of the NADH (Boehringer-Mannheim, France) at 340 nm, by means of a SAFAS spectrophotometer preheated to 25° C. Testing began with the addition of the substrate (Fru(1.6)P2; […] in final concentration), to complete an aldolase solution created in a triethanolamine buffer (TEA buffer) (100 Mm TEA/HCl; 50 mM NaCl; 1 mM EDTA, pH 7.6; ionic strength 0.15), 0.42 mM of NADH, and containing both enzyme systems (10 μg/mL of GDH and 1 μg/mL of TIM) for a final volume of 1 mL. The construction, overexpression and purification of recombinant aldolase were carried out in accordance with Morris A. J. et al., 1993 (J. Biol. Chem., 265:1095-1100) and Berthiaume L. et al., 1993 (J. Biol. Chem., 268:10826-10835).
The substrate cleavage rate was determined by measuring the decrease in absorbance/minute at 340 nm. The aldolase was dialyzed overnight at 4° C. against a TEA buffer prior to use. The protein concentration was determined by spectrophotometry, using ε280=0.91 mL.mg^−1.cm^−1 as an extinction coefficient. Subunit concentration was determined on the basis of a molecular weight of 159,000 for an aldolase tetramer. • Kinetic Method:
In the extreme situation where k−2 approaches zero, a reversible slow-binding inhibitor may resemble an irreversible one directed toward the active site. In this situation, the equation eqn.(3) is used for this type of inhibition (Meloche H. P., 1967, Biochemistry, 6:2273-2280). The semi-inactivation time of the enzyme (t1/2) is defined as a function of the mutual inhibitor concentration and is graphically represented by a straight line crossing the Y-axis at […] and crossing the X-axis at −1/Ki. • Experimental Protocol:
Native aldolase (5 μM of subunits) is incubated in the presence of FHN-P (0.05-1 mM) in TEA buffer. Enzyme activity is analyzed as a function of time using 10 μl aliquot portions.
Inactivation kinetics follow pseudo-first-order kinetics, and kinetic parameters Ki and k2 are determined by using the equation eqn.(3). To determine the reactivation rate, aldolase (25 μM of subunits in the TEA buffer) is incubated with 500 μM of FHN-P until reaching 90% inactivation. Excess inhibitor is removed by ultrafiltration with a PM-30 Millipore membrane. The enzyme-inhibitor complex is incubated in the TEA buffer (15 μM of subunits at final concentration) containing hexitol-P2 (10 mM). Aliquot portions (10 μl) are removed at different times to measure aldolase activity.
Controls involve repeating the protocol without FHN-P. The reactivation process is analyzed as if it were a first-order reaction. • Monitored by UV-Visible Differential Spectroscopy.

In the case of O=Cc1c(O)ccc2cc(OP(=O)(O)O)ccc12 [FHN-P, 5-formyl-6-hydroxy-2-naphthylphosphate], the Residual specific activity [1] is reported as “ud”, the “ΔA relative to 432 nm” value ([1]; first phase) is reported as 98% and the kapp ([1]; first phase (associated with inhibition)) is reported as 0.005 ± 0.0005 min⁻¹. The “ΔA relative to 432 nm” value ([1]; second (slow) phase) was 25%, the kapp ([1]; second (slow) phase) was 0.0015 ± 0.0003 min⁻¹ and the Specific activity ([2]; FHN-P 250 μM with Fru(1,6)P2 (1 mM), 80 min incubation) was 5.2 ± 0.4 Unit/mg. For the same compound, the Specific activity ([2]; FHN-P 250 μM with hexitol-P2, 80 min incubation) was 9.9 ± 0.5 Unit/mg, the Specific activity ([2]; compound 250 μM, TEA buffer pH 7.6, 80 min incubation, RM alone 12.5 ± 0.5) was 2.8 ± 0.3 Unit/mg and the Ki ([2]; dissociation constant of rapidly formed EI complex, from kapp at 0.01-1.5 mM inhibitor, eqn.(3), read-out: Ki) was 250 ± 100 µM. For the same compound, the Ki ([2]; estimated from the values of Table 2, read-out: global dissociation constant Ki*) was 0.04 ± 0.02 µM and the k2 ([2]; inactivation constant, enzyme activity kinetics) was 0.07 ± 0.01 min⁻¹.
